Results reported in US10010559B2, “Use of derivatives containing C-O-P bonds in patients with kidney failure” (LABORATORIOS SANIFIT, S.L., priority 2013, dated 2018).
Each block holds one compound with its values, some of them ahead of it.

Tests used:
[1] = system: vit D-induced cardiovascular calcification; assay: Inhibition of vit D-induced (300,000 IU/kg x3) cardiovascular calcification by s.c. IP6; format: in vivo, SD rats
Experimental: Objective: to evaluate the efficacy of s.c. IP6 for inhibiting vit D-induced cardiovascular calcification in rats. Experimental: male SD rats were divided into 9 groups. Two of said groups (sham and control groups) received s.c. saline 2 ml/kg; 6 groups received s.c. […] One group was treated with a s.c. Alzet pump loaded with 200 mg/ml IP6. Calcification was induced by oral administration of 300,000 IU/kg vitamin D (2 ml/kg) for 3 days starting on treatment day 3. […] The calcium content in heart, aorta and kidneys was determined after treatment for 7 days.

[2] = PK profile of IP6 s.c. in rats with normal and diminished kidney function; format: in vivo, Wistar rats
Experimental: Objective: to evaluate the PK profile for rats with normal kidney function and renal impairment. Experimental: a single s.c. dose (10 mg/kg) was administered to rats with normal kidney function. Plasma samples were obtained at different timepoints up to 60 minutes. A different group of Wistar rats received oral treatment with adenine 600 mg/kg (p.o.) for 10 days to induce renal impairment. Alpha-calcidol (300 ng/kg) was administered on days 11 and 13 and plasma samples were collected at different timepoints up to 60 minutes on day 14. The plasma IP6 concentrations were quantified for both groups.

[3] = system: tissue calcification in chronic renal impairment model (5/6 nephrectomised rats); assay: 5/6 nephrectomy model, IP6 i.v. bolus; format: in vivo, SD rats; conditions: i.v. bolus 1 or 5 mg/kg, 8 weeks
Experimental: Objective: to determine the efficacy of intravenous IP6 in the prevention of tissue calcification in a chronic renal impairment model (5/6 nephrectomised rats).
Experimental: 48 SD rats were 5/6 nephrectomised by complete right lateral nephrectomy and ⅔ partial nephrectomy of the left kidney. 16 animals per group were treated intravenously (bolus) with 2 ml/kg saline, 1 mg/kg IP6 or 5 mg/kg IP6. The animals received a phosphate-rich diet (1% Ca, 1.2% P) containing 20% lactose. After 8 weeks the aorta, heart and remaining ⅓ kidney were collected and the tissue calcium content determined.

[4] = Calcium chelation by IP6 in vitro; format: physicochemical; conditions: 2.5 mM calcium in 0.15 M NaCl, pH 7.40
Experimental: Objective: to evaluate the ionic calcium chelation potential of IP6. Experimental: a 2.5 mM of calcium in NaCl 0.15 M, pH 7.40, was pipetted with increasing concentrations of IP6. The amount of free ionic calcium was measured potentiometrically using a calcium-selective electrode and a potentiometer.

[5] = HAP crystallisation induction period (synergy with other treatments); format: physicochemical
Experimental: Objective: to evaluate the potential synergies between the effects of IP6 and the effects of other treatments for renal impairment.
Experimental: hydroxyapatite (HAP) was crystallised by mixing appropriate concentrations of calcium and phosphate at pH 7.4. The effect of cinacalcet and sevelamer was simulated by suitably modifying the calcium and phosphate concentrations. The induction period (time required for HAP to begin to crystallise) was recorded as the analytical signal.

[6] = PK profile of IP6 by 4 h intravenous infusion in normal and uraemic rats; format: in vivo, Wistar rats
Experimental: Objective: to evaluate the PK profile for IP6 in rats with normal kidney function and non-dialysed rats with renal impairment by intravenous infusion.
Experimental: Wistar rats with normal kidney function were treated daily with a dose of 10 or 50 mg/kg IP6 by intravenous fusion over 4 h. Plasma samples were obtained at different timepoints up to 4 hours on day 0. The animals were then treated orally with 600 mg/kg (p.o.) adenine for 10 days to induce renal impairment. The animals were treated with alpha-calcidol (300 ng/kg) on days 11 and 13 and plasma samples were collected at different timepoints up to 4 hours on day 14. The plasma IP6 levels were quantified for both groups.

[7] = system: tissue calcification in chronic renal impairment model (adenine); assay: Adenine model, bolus-type s.c. IP6; format: in vivo, Wistar rats; conditions: s.c. bolus 3, 10 and 30 mg/kg, 28 days, adenine rats
Experimental: Objective: to determine the efficacy of IP6 in the prevention of tissue calcification in an animal model of chronic renal impairment (adenine).
Experimental: CKD was induced in 4 groups (n=12) of male Wistar rats by oral (p.o.) treatment with adenine (600 mg/kg/day) daily for 10 days. After treatment with adenine, the rats received alpha-calcidol at a dose of 300 ng/kg (3×/week, p.o.) until day 28. From day 0 until sacrifice (day 28), the animals were treated with a 2 ml/kg s.c. bolus of 0, 3, 10 and 30 mg/kg IP6. At each treatment, 3 additional animals were included to evaluate the […] for IP6. After 28 days the aorta, heart and right kidney were collected and the tissue calcium content determined.

[8] = system: tissue calcification in uraemic animals; assay: Adenine model, non-bolus intravascular infusion of IP6; format: in vivo, Wistar rats
Experimental: Objective: to determine the efficacy of IP6 as a non-bolus type administration in the prevention of tissue calcification in uraemic animals.
Experimental: CKD was induced in 2 groups (n=12) of male Wistar rats by oral (p.o.) treatment with adenine (600 mg/kg/day) daily for 10 days. After treatment with adenine, the rats received alpha-calcidol at a dose of 300 ng/kg (3×/week, p.o.) until day 28. From day 0 until sacrifice (day 28), the animals were treated with an intravascular infusion of 50 mg/kg IP6 or saline for 4 hours. After 28 days the aorta and heart were collected and the tissue calcium content determined.

[9] = system: vitamin D-induced cardiovascular calcification; assay: Inhibition of vit D-induced (75,000 IU/kg x5) cardiovascular calcification by intravenous IP6; format: in vivo, Sprague Dawley (SD) rats
Experimental: Objective: to evaluate the efficacy of intravenous IP6 in inhibiting vitamin D-induced cardiovascular calcification in rats. Experimental: male Sprague Dawley (SD) rats were divided into 7 groups and IP6 was administered intravenously daily for 14 days at a dose of 0, 0.05, 0.1, 0.5, 1, 5 and 10 mg/kg. Calcification was induced by oral administration of 75,000 IU/kg vitamin D on treatment days 3 to 7. Samples were collected. On day 14 the aortas and hears of the animals were collected to quantify calcification.

[10] = Administration of IP6 via the dialysis system (closed circuit, human blood); format: in vitro ADME
Experimental: Objective: to establish the dialysability of IP6 in human blood using a real dialysis system and the effect thereof on calcium chelation.
Experimental: 1 liter of human blood obtained from patients undergoing therapeutic phlebotomy was introduced into a recipient forming a closed dialysis circuit to simulate a real dialysis. Two experiments were performed (administration pre- and post-dialyser, both in bypass and dialysis mode), administering IP6 to human blood for 20 minutes when outside the recipient (which simulated the animal or human body) and circulating via the dialysis circuit. The recipient containing 1 liter of whole blood at a controlled temperature of 37° C. is connected to the dialysis apparatus to form a closed circuit. The dialysis apparatus will be connected for 1 hour (dialysis fluid flow of 500 ml/min and blood flow of 350 ml/min). Blood samples are collected at different times to determine the IP6 and ionic calcium levels.

[11] = In vitro binding kinetics of IP6 to HAP; conditions: 130 mg HAP
Experimental: Objective: to analyse the binding rate of IP6 to HAP.
Experimental: 130 mg HAP was incubated (in triplicate) with 7.6 μM IP6, at 37° C., pH 7.4, for different time intervals while stirring continuously.

[12] = In vitro affinity (adsorption) of IP6 for hydroxyapatite; format: binding
Experimental: Objective; the objective of this study is to analyse the affinity of IP6 for the target thereof, thereby obtaining a curve for the affinity of IP6 for HAP.
[…] The total quantity of IP6 bound to the surface of the target (HAP) was quantified.
To characterise the behaviour of IP6 binding, the EC50 and Emax for the adsorption thereof on HAP were calculated. This was performed using a non-linear regression model (Log [agonist] vs. response−slope variable; GraphPad Prism software).

[13] = system: serum ionic calcium, ECG and clinical signs; assay: Cardiovascular function after bolus intravenous IP6 in conscious dogs (telemetry); format: in vivo
Experimental: Objective: to examine the effects of a bolus-type administration of IP6 in serum ionic calcium, ECG and clinical signs in dogs. Experimental: 4 male dogs, 2 per dose, were injected with 10, 15 and 30 mg/kg. Two washout days were introduced between the different doses. The ECGs were recorded telemetrically. Blood ionic calcium concentrations were determined on different days to the ECG measurements.

[14] = system: ECG and serum ionic calcium; assay: Cardiovascular function after 2 h intravascular infusion of IP6 in conscious dogs (telemetry); format: in vivo; conditions: for peak IP6 level: dogs
Experimental: Objective: to determine the effects of a non-bolus type administration of IP6 on the electrocardiogram (ECG) and serum ionic calcium concentrations.
Experimental: 4 male dogs were treated with 3, 10 and 30 mg/kg IP6 by infusion for 2 h in a Latin square design. A washout period of one week was performed between doses. ECGs were measured telemetrically at 1 h and 20 minutes prior to infusion and 5, 15, 30, 45 minutes, 1, 2, 6 and 24 h post-infusion. In a second stage, blood samples were taken for PK, for the same doses, at 20 minutes prior to infusion and 5, 15, 30 minutes and 1, 1.5, 2, 3 and 6 h post-infusion. In this case the washout period between doses was 2 days. […]

[15] = normal Wistar rats, s.c. 10 mg/kg
[16] = intravascular infusion 50 mg/kg for 4 hours, day 0-28, uraemic rats
[17] = i.v. between 1 and 10 mg/kg daily for 14 days
[18] = without IP6, drug effect simulated by modifying calcium and phosphate concentrations

- duration of measurable plasma levels [2, 15]: at least 30 minutes
- peak plasma concentration [2, 15]: 7.4 µM
- time of peak concentration post-administration [2, 15]: 15 min
- peak plasma concentration ([2]; uraemic rats (adenine), s.c. 10 mg/kg): 1.8 µM
- peak plasma concentration ([6]; normal rats, 10 mg/kg i.v. infusion over 4 h): 8.4 µM
- peak plasma concentration ([6]; normal rats, 50 mg/kg i.v. infusion over 4 h): 68.4 µM
- peak plasma concentration ([6]; uraemic rats, 10 mg/kg i.v. infusion over 4 h): 2.8 µM
- peak plasma concentration ([6]; uraemic rats, 50 mg/kg i.v. infusion over 4 h): 24.6 µM
- time approximately constant plasma concentration maintained ([6]; uraemic rats, 50 mg/kg infusion, from hour 1 to hour 4): 3 h
- reduction of plasma IP6 levels by the end of the experiment ([8]; uraemic rats, due to high metabolic rate): 90%
- dialysability of IP6 ([10]; administration via dialysis line for 20 minutes): not lost via the dialysis membrane
- effect on free calcium ([10]; apparatus in bypass mode): chelates (sequesters) free calcium
- effect on ionic calcium ([10]; apparatus in dialysis mode): ionic calcium levels are restored
- time to adsorption maximum ([11]; 7.6 μM IP6, 37° C., pH 7.4): 60 min
- fraction of maximum binding achieved ([11]; after 5 minutes, 7.6 μM IP6): Around 80%
Compound: O=P(O)(O)O[C@H]1[C@H](OP(=O)(O)O)[C@@H](OP(=O)(O)O)[C@H](OP(=O)(O)O)[C@@H](OP(=O)(O)O)[C@H]1OP(=O)(O)O [IP6, inositol hexaphosphate]
- efficacy (inhibition of calcification) ([1]; s.c. 60 mg/kg): approximately 60%
- efficacy (inhibition of calcification) ([1]; s.c. 100 mg/kg): approximately 60%
- minimum dose that produced a significant effect on calcification ([1]; s.c., aorta): 10 mg/kg
- metabolites detected ([2]; plasma, rats): Lower inositol phosphates (IP5, IP4, IP3, IP2, IP1) and inositol
- calcification inhibition (aorta, heart, remaining kidney) [3]: no evidence of calcification inhibition
- IP6 concentration at saturation of calcium chelation [4]: 3788 µM
- IP6 concentration with significant ionic calcium chelation [4]: about 379 μM
- induction period of HAP crystallisation ([5]; 11.4 μM IP6, pH 7.4, control 8 minutes): 28 min
- combination effect on induction period ([5]; IP6 0-11.4 μM with simulated cinacalcet or sevelamer): clear synergistic effect
- calcification inhibition (aorta, heart, right kidney) [7]: no evidence of calcification inhibition
- reduction in average calcification in the aorta [8, 16]: 80%
- reduction in average calcification in the heart [8, 16]: 85%
- effect on mineral content of the aorta and heart ([9]; i.v. 0.05 to 0.5 mg/kg daily for 14 days): did not affect
- reduction of calcification in aorta [9, 17]: up to 60%
- reduction of calcification in heart [9, 17]: ≤ 68%
- Emax for adsorption on HAP (saturation) [12]: 6.42 mg/g
- maximum adsorption of IP6 on the HAP surface ([12]; 300 mg HAP, 7.6 μM IP6, 8 hours): 4.8 mg
- IP6 concentration at saturation of adsorption on HAP ([12]; 37° C., pH 7.4): ≥ 7.6 µM
- ECG findings ([13]; i.v. bolus above 15 mg/kg, becoming significant above 30 mg/kg): mild tachycardia and prolonged QTc interval
- decrease in ionic calcium ([13]; i.v. bolus, correlated with prolonged QTc): 30%
- peak IP6 level ([14]; 3 mg/kg infusion 2 h): 27 µM
- peak IP6 level ([14]; 10 mg/kg infusion 2 h): 150 µM
- peak IP6 level ([14]; 30 mg/kg infusion 2 h): 482 µM
- state of health, weight, cardiorespiratory function, ECG, body temperature, total and free potassium in blood ([14]; infusion for 2 h, 3, 10 and 30 mg/kg, any dose): relatively unaffected
- overall effects on dogs ([14]; infusion of 3, 10 and 30 mg/kg for 2 h): no negative effects

Compound: sevelamer [reference compound]
- induction period of HAP crystallisation [5, 18]: 15 min

Compound: O=P([O-])([O-])OP(=O)([O-])[O-].[Na+].[Na+].[Na+].[Na+] [pyrophosphate, sodium pyrophosphate, reference compound]
- efficacy on calcification ([1]; s.c., at higher doses than IP6): good efficacy

Compound: C[C@@H](NCCCc1cccc(C(F)(F)F)c1)c1cccc2ccccc12 [cinacalcet, reference compound]
- induction period of HAP crystallisation [5, 18]: 14 min
